Patent US11629146B2, “Substituted [1,2,4]triazolo[4,3-a]pyrazines as modulators of sodium channel activity” (Praxis Precision Medicines, Inc., priority 2016, dated 2023)

biological target: human NaV1.6 (hNaV1.6) (Homo sapiens (Human), UniProt Q9UQD0); assay: INaL inhibition at hNaV1.6, PatchXpress electrophysiology; format: cell-based; conditions: HEK293, read-out: INaL v1.6 (1 μM, % Inhibition)
Procedure: Functional characterization of exemplary compounds to modulate INaL expressed by the Nay 1.6 voltage-gated sodium channel was accomplished using the PatchXpress™ high throughput electrophysiology platform (Molecular Devices, Sunnyvale, Calif.). HEK-293 cells expressing recombinant, human NaV1.6 (hNaV1.6) were grown in DMEM/high-glucose Dulbecco's modified, 10% FBS, 2 mM sodium pyruvate, 10 mM HEPES and 400 μg/mL G418. Cells were grown to 50%-80% confluency prior to harvesting. […] The onboard liquid handling facility of the PatchXpress was used for dispensing cells and applying test compounds. Nay late currents were evoked by the application of 300 nM ATX-II. […] INaL amplitude and stability were determined by analyzing the mean current amplitude over the final 20 ms of the test pulse. […] Percent steady-state inhibition of INaL was calculated as: [(INaL_compound)/(INaL_control)]*100, where INaL_compound and INaL_control represent INaL recorded in the presence or absence of compound, respectively.

Chain of human NaV1.6 (hNaV1.6) (Q9UQD0 whole entry): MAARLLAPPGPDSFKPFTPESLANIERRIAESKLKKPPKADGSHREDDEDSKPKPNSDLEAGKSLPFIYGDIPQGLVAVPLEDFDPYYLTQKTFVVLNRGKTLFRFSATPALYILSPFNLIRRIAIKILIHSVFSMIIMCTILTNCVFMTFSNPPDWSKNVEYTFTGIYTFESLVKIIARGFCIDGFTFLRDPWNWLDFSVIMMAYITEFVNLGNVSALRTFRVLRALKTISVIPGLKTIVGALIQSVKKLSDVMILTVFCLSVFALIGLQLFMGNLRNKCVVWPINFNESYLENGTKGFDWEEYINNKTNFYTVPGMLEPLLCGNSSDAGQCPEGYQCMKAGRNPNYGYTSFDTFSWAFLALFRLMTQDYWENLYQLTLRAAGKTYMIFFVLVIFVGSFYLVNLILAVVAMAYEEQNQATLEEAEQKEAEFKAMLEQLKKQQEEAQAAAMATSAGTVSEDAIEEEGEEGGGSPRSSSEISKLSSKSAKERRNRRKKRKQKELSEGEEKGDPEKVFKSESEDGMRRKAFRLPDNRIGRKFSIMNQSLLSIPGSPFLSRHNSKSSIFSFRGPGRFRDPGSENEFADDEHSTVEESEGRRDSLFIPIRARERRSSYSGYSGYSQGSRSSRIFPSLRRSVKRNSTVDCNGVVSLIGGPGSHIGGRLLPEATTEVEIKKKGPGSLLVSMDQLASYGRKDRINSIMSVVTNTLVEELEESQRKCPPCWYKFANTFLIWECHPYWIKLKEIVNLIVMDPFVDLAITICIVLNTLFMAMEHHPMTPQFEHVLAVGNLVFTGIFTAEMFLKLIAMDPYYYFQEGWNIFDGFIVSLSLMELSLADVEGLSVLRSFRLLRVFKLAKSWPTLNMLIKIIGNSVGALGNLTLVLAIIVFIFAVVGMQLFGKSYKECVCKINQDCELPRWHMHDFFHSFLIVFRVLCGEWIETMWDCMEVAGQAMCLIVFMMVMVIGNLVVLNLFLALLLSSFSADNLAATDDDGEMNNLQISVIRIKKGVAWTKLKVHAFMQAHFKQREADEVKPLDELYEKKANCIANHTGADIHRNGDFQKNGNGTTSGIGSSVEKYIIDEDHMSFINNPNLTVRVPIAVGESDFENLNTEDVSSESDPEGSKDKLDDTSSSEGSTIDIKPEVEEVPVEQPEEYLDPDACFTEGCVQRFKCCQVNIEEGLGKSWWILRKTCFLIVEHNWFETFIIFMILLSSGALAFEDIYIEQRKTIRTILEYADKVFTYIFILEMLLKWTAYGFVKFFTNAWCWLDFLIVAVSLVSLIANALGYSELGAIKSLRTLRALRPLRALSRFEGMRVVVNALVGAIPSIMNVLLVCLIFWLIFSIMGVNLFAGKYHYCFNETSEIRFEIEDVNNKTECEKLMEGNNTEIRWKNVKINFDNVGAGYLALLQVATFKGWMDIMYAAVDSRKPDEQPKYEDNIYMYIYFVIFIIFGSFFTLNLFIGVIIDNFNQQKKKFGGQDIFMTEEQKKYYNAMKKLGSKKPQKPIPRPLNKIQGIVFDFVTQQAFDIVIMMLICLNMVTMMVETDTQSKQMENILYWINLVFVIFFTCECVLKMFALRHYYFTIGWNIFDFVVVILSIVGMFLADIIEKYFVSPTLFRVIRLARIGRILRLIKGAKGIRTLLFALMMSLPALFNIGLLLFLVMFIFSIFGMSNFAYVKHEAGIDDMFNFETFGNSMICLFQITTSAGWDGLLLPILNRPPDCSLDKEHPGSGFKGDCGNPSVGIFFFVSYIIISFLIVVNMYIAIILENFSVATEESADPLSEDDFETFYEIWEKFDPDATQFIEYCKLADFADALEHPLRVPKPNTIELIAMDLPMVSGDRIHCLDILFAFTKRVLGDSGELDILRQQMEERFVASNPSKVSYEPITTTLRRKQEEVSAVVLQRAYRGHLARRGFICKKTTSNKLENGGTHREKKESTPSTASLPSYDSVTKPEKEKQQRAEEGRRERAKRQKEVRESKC

Compound | inhibition at 1 µM
FC(F)(F)Oc1ccc(-c2cn3c(C4CCOCC4)nnc3cn2)cc1 [Compound 145] | < 30%

same assay, conditions: HEK293; 1 μM; HEK-293 cells expressing hNaV1.6; late current evoked by 300 nM ATX-II; read-out: INaL v1.6 (1 μM, % Inhibition)

inhibition at 1 µM | Compound
> 70% | FC(F)(F)Oc1ccc(-c2ccc3nnc(C4(F)CC4)n3n2)cc1 [Compound 61]
30 to 70% | Cc1cc2nnc(C(F)(F)F)n2nc1-c1ccc(OC(F)(F)F)cc1 [Compound 140, 7-methyl-6-[4-(trifluoromethoxy)phenyl]-3-(trifluoromethyl)-[1,2,4]triazolo[4,3-b]pyridazine]
30 to 70% | COCc1cc(C(F)(F)F)ccc1-c1cn2c(C(F)F)nnc2cn1 [Compound 141]
> 70% | COCc1cc(OC(F)(F)F)ccc1-c1cn2c(C(F)F)nnc2cn1 [Compound 142]
< 30% | COCc1cc2nnc(C(F)(F)F)n2nc1-c1ccc(OC(F)(F)F)cc1 [Compound 143]
< 30% | COCc1cc(-c2cn3c(C(F)F)nnc3cn2)ccc1OC(F)(F)F [Compound 144]
30 to 70% | COCc1cc(-c2ccc3nnc(C(F)F)n3n2)ccc1OC(F)(F)F [Compound 146]
< 30% | COc1nnc2cnc(-c3ccc(OC(F)(F)F)cc3)cn12 [Compound 148]
> 70% | FC(F)(F)OCc1ccc(-c2cn3c(C(F)(F)F)nnc3cn2)cc1 [Compound 149]
< 30% | FC(F)(F)COc1nnc2cnc(-c3ccc(OC(F)(F)F)cc3)cn12 [Compound 150]
30 to 70% | FC(F)(F)c1nnc2cnc(-c3ccc([C@H]4CC4(F)F)cc3)cn12 [Compound 151, 6-[4-[(1R)-2,2-difluorocyclopropyl]phenyl]-3-(trifluoromethyl)-[1,2,4]triazolo[4,3-a]pyrazine]
> 70% | FC(F)(F)c1nnc2cnc(-c3ccc([C@@H]4CC4(F)F)cc3)cn12 [Compound 152, 6-[4-[(1S)-2,2-difluorocyclopropyl]phenyl]-3-(trifluoromethyl)-[1,2,4]triazolo[4,3-a]pyrazine]
30 to 70% | COCc1cc(-c2cn3c(C(F)(F)F)nnc3cn2)ccc1C(F)(F)F [Compound 157]
30 to 70% | COCc1cc(-c2ccc3nnc(C(F)(F)F)n3n2)ccc1C(F)(F)F [Compound 158]
30 to 70% | COCc1cc(-c2ccc3nnc(C(F)F)n3n2)ccc1C(F)(F)F [Compound 159]
< 30% | FC(F)(F)Oc1ccc(-c2cn3c([C@H]4CCOC4)nnc3cn2)cc1 [Compound 160, 3-[(3R)-tetrahydrofuran-3-yl]-6-[4-(trifluoromethoxy)phenyl]-[1,2,4]triazolo[4,3-a]pyrazine]
< 30% | FC(F)(F)Oc1ccc(-c2cn3c([C@@H]4CCOC4)nnc3cn2)cc1 [Compound 161, 3-[(3S)-tetrahydrofuran-3-yl]-6-[4-(trifluoromethoxy)phenyl]-[1,2,4]triazolo[4,3-a]pyrazine]
> 70% | FC(F)(F)Oc1ccc(-c2nn3c(C(F)(F)F)nnc3cc2Cl)cc1 [Compound 162, 7-chloro-6-[4-(trifluoromethoxy)phenyl]-3-(trifluoromethyl)-[1,2,4]triazolo[4,3-b]pyridazine]
< 30% | COCc1cc(-c2ccc(OC(F)(F)F)cc2)nn2c(C(F)(F)F)nnc12 [Compound 163]
30 to 70% | FC(F)c1nnc2ccc(-c3ccc([C@H]4CC4(F)F)cc3)nn12 [Compound 164, 6-[4-[(1R)-2,2-difluorocyclopropyl]phenyl]-3-(difluoromethyl)-[1,2,4]triazolo[4,3-b]pyridazine]
> 70% | FC(F)c1nnc2ccc(-c3ccc([C@@H]4CC4(F)F)cc3)nn12 [Compound 165, 6-[4-[(1S)-2,2-difluorocyclopropyl]phenyl]-3-(difluoromethyl)-[1,2,4]triazolo[4,3-b]pyridazine]
30 to 70% | FC(F)c1nnc2cnc(-c3ccc([C@H]4CC4(F)F)cc3)cn12 [Compound 166, 6-[4-[(1R)-2,2-difluorocyclopropyl]phenyl]-3-(difluoromethyl)-[1,2,4]triazolo[4,3-a]pyrazine]
30 to 70% | FC(F)c1nnc2cnc(-c3ccc([C@@H]4CC4(F)F)cc3)cn12 [Compound 167, 6-[4-[(1S)-2,2-difluorocyclopropyl]phenyl]-3-(difluoromethyl)-[1,2,4]triazolo[4,3-a]pyrazine]
30 to 70% | Cc1nc(-c2ccc(OC(F)(F)F)cc2)cn2c(C(F)(F)F)nnc12 [Compound 168, 8-methyl-6-[4-(trifluoromethoxy)phenyl]-3-(trifluoromethyl)-[1.2.4]triazolo[4,3-a]pyrazine]
< 30% | OCc1ccc(-c2ccc3nnc(C(F)F)n3n2)cc1 [Compound 169, [4-[3-(difluoromethyl)-[1,2,4]triazolo[4,3-b]pyridazin-6-yl]phenyl]methanol]
< 30% | COCc1ccc(-c2cn3c(C(F)F)nnc3cn2)cc1 [Compound 170]

inhibition at 1 µM | Compound
< 30% | COCc1ccc(-c2ccc3nnc(C(F)F)n3n2)cc1 [Compound 171]
< 30% | OCc1ccc(-c2cn3c(C(F)F)nnc3cn2)cc1 [Compound 172, [4-[3-(difluoromethyl)-[1,2,4]triazolo[4,3-a]pyrazin-6-yl]phenyl]methanol]
30 to 70% | COCc1cc(-c2cn3c(C(F)(F)F)nnc3cn2)ccc1OC(F)(F)F [Compound 173]
30 to 70% | Cc1cc(OC2CC(F)(F)C2)ccc1-c1cn2c(C(F)(F)F)nnc2cn1 [Compound 174]
> 70% | Fc1ccc(-c2nnc3cnc(-c4cnc(OCC(F)(F)F)c(F)c4)cn23)cc1 [Compound 175]
< 30% | Nc1cc(-c2ccc(OC(F)(F)F)cc2)nn2c(C(F)(F)F)nnc12 [Compound 176, 6-[4-(trifluoromethoxy)phenyl]-3-(trifluoromethyl)-[1,2,4]triazolo[4,3-b]pyridazin-8-amine]
< 30% | CC(=O)Nc1cc(-c2ccc(OC(F)(F)F)cc2)nn2c(C(F)(F)F)nnc12 [Compound 177]
30 to 70% | FC(F)c1nnc2cnc(-c3ccc(OC4CC(F)(F)C4)cc3)cn12 [Compound 178]
30 to 70% | FC(F)(F)COc1ccc(-c2cn3c(C(F)(F)F)nnc3cn2)cn1 [Compound 179]
< 30% | COCc1ccc(-c2cn3c(C(F)(F)F)nnc3cn2)cc1 [Compound 180]
< 30% | O=C(O)c1cc(-c2ccc(OC(F)(F)F)cc2)nn2c(C(F)(F)F)nnc12 [Compound 181, 6-[4-(trifluoromethoxy)phenyl]-3-(trifluoromethyl)-[1,2,4]triazolo[4,3-b]pyridazine-8-carboxylic acid]
< 30% | NC(=O)c1cc(-c2ccc(OC(F)(F)F)cc2)nn2c(C(F)(F)F)nnc12 [Compound 183]
< 30% | O=C(O)c1cc2nnc(C(F)(F)F)n2nc1-c1ccc(OC(F)(F)F)cc1 [Compound 184, 6-[4-(trifluoromethoxy)phenyl]-3-(trifluoromethyl)-[1,2,4]triazolo[4,3-b]pyridazine-7-carboxylic acid]
< 30% | OCc1cc(-c2ccc(OC(F)(F)F)cc2)nn2c(C(F)(F)F)nnc12 [Compound 186]
> 70% | Fc1cc2nnc(C(F)(F)F)n2nc1-c1ccc(OC(F)(F)F)cc1 [Compound 187]
30 to 70% | Fc1ccc(Oc2nnc3cnc(-c4cnc(OCC(F)(F)F)c(F)c4)cn23)cc1 [Compound 188]
< 30% | FC(F)(F)Oc1ccc(-c2cc(Cl)c3nnc(C(F)(F)F)n3n2)cc1 [Compound 189]
< 30% | Nc1cc2nnc(C(F)(F)F)n2nc1-c1ccc(OC(F)(F)F)cc1 [Compound 190, 6-[4-(trifluoromethoxy)phenyl]-3-(trifluoromethyl)-[1,2,4]triazolo[4,3-b]pyridazin-7-amine]
< 30% | CC(=O)Nc1cc2nnc(C(F)(F)F)n2nc1-c1ccc(OC(F)(F)F)cc1 [Compound 191]
< 30% | COCc1nc(-c2ccc(OC(F)(F)F)cc2)cn2c(C(F)(F)F)nnc12 [Compound 192]
30 to 70% | Fc1cc(-c2cn3c(C(F)(F)F)nnc3cn2)ccc1OC1CC(F)(F)C1 [Compound 194]
< 30% | CC(C)OCc1ccc(-c2cn3c(C(F)(F)F)nnc3cn2)cc1 [Compound 195]
< 30% | OCc1ccc(-c2cn3c(C(F)(F)F)nnc3cn2)cc1 [Compound 196, [4-[3-(trifluoromethyl)-[1,2,4]triazolo[4,3-a]pyrazin-6-yl]phenyl]methanol]
30 to 70% | FC(F)c1nnc2cnc(-c3ccc(COC(F)(F)F)cc3)cn12 [Compound 197]
> 70% | C[C@@H](Oc1ccc(-c2ccc3nnc(C(F)(F)F)n3n2)cn1)C(F)(F)F [Compound 199, 3-(trifluoromethyl)-6-[6-[(1R)-2,2,2-trifluoro-1-methyl-ethoxy]-3-pyridyl]-[1,2,4]triazolo[4,3-b]pyridazine]
> 70% | C[C@H](Oc1ccc(-c2ccc3nnc(C(F)(F)F)n3n2)cn1)C(F)(F)F [Compound 200, 3-(trifluoromethyl)-6-[6-[(1S)-2,2,2-trifluoro-1-methyl-ethoxy]-3-pyridyl]-[1,2,4]triazolo[4,3-b]pyridazine]

test system: not listed separately; assay: PK rat clearance experiment; format: in vivo; conditions: male Sprague-Dawley rats, single intravenous bolus 0.5 mg/kg, plasma
Procedure: The IV dosing solution was prepared freshly on the dosing day. Test article (0.5 mg/kg) was prepared in a vehicle, for example, consisting of 5% DMSO/5% solutol/90% water. The concentrations of test article in all dosing solutions were determined by HPLC/UV. Three male Sprague-Dawley rats were used in this study. The animals were confirmed healthy before being assigned to the study. Each animal was given a unique identification number which was marked on the tail or the ear, and written on the cage card. All animals were fasted overnight before dosing and the food was returned at 4 hours post dosing. Water was provided to all animals ad libitum during the fasting period. Animals were weighed prior to dose administration on the day of dosing for calculating the actual dose volume. The body weights were in the range from 212 g to 223 g for males. All animals received test article by single intravenous bolus administration at 0.5 mg/kg. Approximately 0.2 mL blood was collected at each time point via jugular vein from each study animal. […] All blood samples were transferred into pre-labeled plastic micro centrifuge tubes and mixed with the pre-loaded anti-coagulant K2EDTA (5 μL, 0.5 M). Plasma samples were then prepared by centrifuging the blood samples. All plasma samples were then quickly frozen over dry ice and kept at −60° C. or lower until LC/MS/MS analysis. The concentrations of test article in plasma were determined by using a quantitative bioanalytical LC/MS/MS method. The lower limit of quantitation (LLOQ) for test article in plasma was 1 ng/mL, and the upper limit of quantitation (ULOQ) in plasma was 3000 ng/mL. The plasma concentration of test article in rats was subjected to a non compartmental pharmacokinetic analysis by using the Phoenix WinNonlin software (version 6.3, Pharsight, Mountain View, Calif.). The linear/log trapezoidal rule was applied in obtaining the PK parameters.

clearance | half-life | Compound
1.6 mL/min/kg | 15.2 h | FC(F)(F)Oc1ccc(-c2ccc3nnc(C4(F)CC4)n3n2)cc1 [Compound 61]
